Structures can show the parent of a compound that is named as a salt. Where two headings read alike, the source gives them in different places.
Tests used:
AMO-1 cells = experiment: Antiproliferation assay (CellTiter-Glo, 72 h), AMO-1; type: cell-based; conditions: IC50, median, AMO-1, 72 h, read-out: Antiproli AMO-1 [M] median
Experimental: Assessment of the Anti-Proliferative Effect of Compounds in Different Cell Lines
The impact of compounds on the proliferation of different cell lines was assessed using the CellTiter-Glo® Luminescent Cell Viability reagent from Promega (G7573).
In parallel, cells were plated in a reference (day 0) plate for time zero determination.
Rim wells were excluded. The cells were incubated for 72 h hours in a humidified incubator at 37° C. The day 0 plate was measured by adding 30 μL/well of CTG solution (CellTiter-Glo® Luminescent Cell Viability reagent, Promega G7573) to time zero wells in the reference plate followed by a 10 minutes incubation and luminescence reading at 0.1 ms. using the PHERAstar FS microplate reader (BMG Labtech).
After 72 h incubation, the treated plates were measured in the same way as the day 0 plate mentioned above.

SUDHL5 cells [1] = experiment: Induction of caspase-3/7 activity (Caspase-Glo 3/7), SUDHL5; type: cell-based; conditions: EC50, median, SUDHL5, 3 h treatment
Experimental: (§1) Induction of Caspase-3/7 Activity Upon Treatment of Cells with Selected Compounds
(§2) The BH3-domain of MCL-1 sequesters pro-apoptotic proteins, thereby inhibiting apoptosis. In contrast, MCL-1 inhibitors are expected to antagonize this effect leading to an increase in apoptosis, which can be determined by measuring the activity of caspase-3/7.
(§3) The activity of caspase-3/7 was determined in DLBCL (Diffuse large B-cell lymphoma) cell lines (SUDHL5 and SUDHL10) upon treatment with different compounds, using the Caspase-Glo® 3/7 reagent from Promega (G8092).
(§4) Rim wells were excluded. The cells were incubated for 3 h hours in a humidified incubator at 37° C.
(§5) For the evaluation of the results, the background measured with “medium-only” was subtracted from all other values.

SUDHL5 cells [2] = experiment: Induction of cytotoxicity (CellTiter-Glo, 5 h), SUDHL5; conditions: SUDHL5, 5 h
SUDHL10 cells [3] = experiment: Induction of cytotoxicity (CellTiter-Glo, 5 h), SUDHL10; conditions: read-out: Cytotox SUDHL10 [M] (median); IC50, median; SUDHL10, 5 h
SUDHL10 cells [4] = experiment: Induction of caspase-3/7 activity (Caspase-Glo 3/7), SUDHL10; type: cell-based; conditions: EC50, median; SUDHL10, 3 h treatment
Experimental: as §1, §2, §3, §4, §5

[5] = Homo sapiens, SU-DHL-5, 5 h, read-out: Cytotox SUDHL5 [M] (median), IC50, median
[6] = read-out: Cytotox SUDHL5 [M] (median), IC50, median

EC50 (SUDHL5 cells [1]; Homo sapiens, SU-DHL-5, 3 h) [µM]	Structure (SMILES)	IC50 (AMO-1 cells; Homo sapiens, AMO1, 72 h) [M]	other results
	Cc1nn(C)c2c1-c1c(Cl)ccc3c(CCCOc4cccc5ccccc45)c(C(=O)O)n(c13)CCCCOC2 (racemic) [Example 2, rac-4-chloro-1,3-dimethyl-7-[3-(naphthalen-1-yloxy)propyl]-1,10,11,12,13,15-hexahydropyrazolo[4′,3′:9,10][1,6]oxazacycloundecino[8,7,6-hi]indole-8-carboxylic acid]	4.9e-06	
	CCc1c2c(nn1C)CN(C)CCCCn1c(C(=O)O)c(CCCOc3cccc4cc(F)ccc34)c3ccc(Cl)c-2c31 (racemic) [Example 5, (rac)-4-chloro-3-ethyl-7-{3-[(6-fluoronaphthalen-1-yl)oxy]propyl}-2,14-dimethyl-10,11,12,13,14,15-hexahydro-2H-pyrazolo[3′,4′:8,9][1,6]diazacycloundecino[10,11,1-hi]indole-8-carboxylic acid]	6.1e-07	
	Cc1c2c(nn1C)COCCCCn1c(C(=O)O)c(CCCOc3cccc4cc(F)ccc34)c3ccc(Cl)c-2c31 (racemic) [Example 14, (rac)-4-chloro-7-{3-[(6-fluoronaphthalen-1-yl)oxy]propyl}-2,3-dimethyl-2,10,11,12,13,15-hexahydropyrazolo[4′,3′:9,10][1,6]oxazacycloundecino[8,7,6-hi]indole-8-carboxylic acid]	7.4e-07	
	CCc1c2c(nn1C)CN(C)CCCCn1c(C(=O)O)c(CCCOc3cccc4ccccc34)c3ccc(Cl)c-2c31 (racemic) [Example 22, (rac)-4-chloro-3-ethyl-2,14-dimethyl-7-[3-(naphthalen-1-yloxy)propyl]-10,11,12,13,14,15-hexa-hydro-2H-pyrazolo[3′,4′:8,9][1,6]diazacycloundecino[10,11,1-hi]indole-8-carboxylic acid]	6.6e-07	
	CCc1c2c(nn1C)COCCCCn1c(C(=O)O)c(CCCOc3cccc4cc(F)ccc34)c3ccc(Cl)c-2c31 (racemic) [Example 36, (rac)-4-chloro-3-ethyl-7-{3-[(6-fluoronaphthalen-1-yl)oxy]propyl}-2-methyl-2,10,11,12,13,15-hexahydropyrazolo[4′,3′:9,10][1,6]oxazacycloundecino[8,7,6-hi]indole-8-carboxylic acid]	2.9e-07	
3.5	CCc1c2c(nn1C)CCCCCCn1c(C(=O)O)c(CCCOc3cccc4cc(F)ccc34)c3ccc(Cl)c-2c31 (racemic) [Example 54, (rac)-4-chloro-3-ethyl-7-{3-[(6-fluoronaphthalen-1-yl)oxy]propyl}-2-methyl-10,11,12,13,14,15-hexahydro-2H-pyrazolo[4′,3′:4,5]azacycloundecino[3,2,1-hi]indole-8-carboxylic acid]		
8.5	Cc1c2c(nn1C)COCC(F)(F)CCn1c(C(=O)O)c(CCCOc3cccc4cc(F)ccc34)c3ccc(Cl)c-2c31 (racemic) [Example 90, (rac)-4-Chloro-12,12-difluoro-7-{3-[(6-fluoronaphthalen-1-yl)oxy]propyl}-2,3-dimethyl-2,10,11,12,13,15-hexahydropyrazolo[4′,3′:9,10][1,6]oxazacycloundecino[8,7,6-hi]indole-8-carboxylic acid]	4.9e-06	IC50 (SUDHL5 cells [2]; [5]): 9.9e-06 M
	CCc1nn(CCN2CCOCC2)c2c1-c1c(Cl)ccc3c(CCCOc4cccc5ccccc45)c(C(=O)O)n(c13)C/C=C\CN(C)C2 (single isomer, unassigned; enantiomer 1) [Example 43, (11Z)-4-chloro-3-ethyl-14-methyl-1-[2-(morpholin-4-yl)ethyl]-7-{3-[(naphthalen-1-yl)oxy]propyl}-10,13,14,15-tetrahydro-1H-pyrazolo[3′,4′:8,9][1,6]diazacycloundecino[10,11,1-hi]indole-8-carboxylic acid-ammonia salt (Enantiomer 1)]		IC50 (SUDHL5 cells [2]; [5]): 6e-07 M
	CCc1nn(CCN2CCOCC2)c2c1-c1c(Cl)ccc3c(CCCOc4cccc5ccccc45)c(C(=O)O)n(c13)CCCCN(C)C2 (single isomer, unassigned; enantiomer 1) [Example 46, 4-chloro-3-ethyl-14-methyl-1-[2-(morpholin-4-yl)ethyl]-7-{3-[(naphthalen-1-yl)oxy]propyl}-10,11,12,13,14,15-hexahydro-1H-pyrazolo[3′,4′:8,9][1,6]diazacycloundecino[10,11,1-hi]indole-8-carboxylic acid (Enantiomer 1)]	5.9e-07	IC50 (SUDHL5 cells [2]; [6]): 4e-07 M
0.8	CCc1c2c(nn1C)CCCCCCn1c(C(=O)O)c(CCCOc3cccc4ccccc34)c3ccc(Cl)c-2c31 (single isomer, unassigned; enantiomer 1) [Example 52, (+)-4-chloro-3-ethyl-2-methyl-7-{3-[(naphthalen-1-yl)oxy]propyl}-10,11,12,13,14,15-hexahydro-2H-pyrazolo[4′,3′:4,5]azacycloundecino[3,2,1-hi]indole-8-carboxylic acid-N-ethylethanamine salt—Enantiomer 1]	2.2e-06	IC50 (SUDHL10 cells [3]): 2e-06 M
9.3	CCc1c2c(nn1C)CN(CCOC)CCCCn1c(C(=O)O)c(CCCOc3cccc4cc(F)ccc34)c3ccc(Cl)c-2c31 (single isomer, unassigned; enantiomer 1) [Example 132, 4-chloro-3-ethyl-7-{3-[(6-fluoronaphthalen-1-yl)oxy]propyl}-14-(2-methoxyethyl)-2-methyl-10,11,12,13,14,15-hexahydro-2H-pyrazolo[3′,4′:8,9][1,6]diazacycloundecino[10,11,1-hi]indole-8-carboxylic acid (Enantiomer 1)]		IC50 (SUDHL5 cells [2]; [5]): 8.2e-06 M
4.5	CCc1c2c(nn1C)CN(C)CCCCn1c(C(=O)O)c(CCCOc3cccc4ccccc34)c3ccc(Cl)c-2c31 (single isomer, unassigned; enantiomer 2) [Example 24, 4-chloro-3-ethyl-2,14-dimethyl-7-[3-(naphthalen-1-yloxy)propyl]-10,11,12,13,14,15-hexahydro-2H-pyrazolo[3′,4′:8,9][1,6]diazacycloundecino[10,11,1-hi]indole-8-carboxylic acid (Enantiomer 2)]		
5.4	CCc1c2c(nn1C)COCCCCn1c(C(=O)O)c(CCCOc3cccc4cc(F)ccc34)c3ccc(Cl)c-2c31 (single isomer, unassigned; enantiomer 2) [Example 38, (−)-4-chloro-3-ethyl-7-{3-[(6-fluoronaphthalen-1-yl)oxy]propyl}-2-methyl-2,10,11,12,13,15-hexahydropyrazolo[4′,3′:9,10][1,6]oxazacycloundecino[8,7,6-hi]indole-8-carboxylic acid-N-ethylethanamine salt (Enantiomer 2)]		
	Cc1c2c(nn1C)COCC(F)(F)CCn1c(C(=O)O)c(CCCOc3cccc4ccccc34)c3ccc(Cl)c-2c31 (single isomer, unassigned; enantiomer 2) [Example 57, 4-chloro-12,12-difluoro-2,3-dimethyl-7-{3-[(naphthalen-1-yl)oxy]propyl}-2,10,11,12,13,15-hexahydropyrazolo[4′,3′:9,10][1,6]oxazacycloundecino[8,7,6-hi]indole-8-carboxylic acid-N-ethylethanamine salt—Enantiomer 2]		EC50 (SUDHL5 cells [1]): 3.2 µM; IC50 (AMO-1 cells): 7.6e-06 M; EC50 (SUDHL10 cells [4]): 8 µM; IC50 (SUDHL5 cells [2]; [6]): 4.9e-06 M
	Cc1c2c(nn1C)COCC1CCC1Cn1c(C(=O)O)c(CCCOc3cccc4ccccc34)c3ccc(Cl)c-2c31 (single isomer, unassigned; stereoisomer 1) [Example 63]		EC50 (SUDHL5 cells [1]): 9 µM

Reference: patent US11478451B1, “Macrocyclic chlorine substituted indole derivatives” (Bayer Aktiengesellschaft, priority 2017, dated 2022)
